Test results reported in US20150250167A1, “COMPOSITION FOR NOXIOUS ORGANISMS-CONTROLLING AGENT AND METHOD FOR USING THE SAME” (priority 2001, published 2015).

Assays:
[1] = test system: Southern Root-Knot Nematode (Meloidogyne incognita); assay: Test for the effect on southern root-knot nematode, soil blending with granular preparation; type: in vivo; conditions: 300 g ai/10a, single agent, 60 days after treatment
Description: Test for the Effect on Southern Root-Knot Nematode (Meloidogyne incognita)
Two killograms of a soil polluted with southern root-knot nematode was blended with a predetermined dose of a granular preparation. The mixture was filled into a 1/5,000 are Wagner pot. After sowing melon seeds and carrying out the treatment of the present invention, the pot was left to stand in a greenhouse. Sixty days after the treatment, 25 g of the soil was sampled out, the nematode was separated therefrom according to the method of Berman, and the numbers of nematodes were counted after 48 hours.
In the tables, “ai” means active ingredient.

[2] = test system: Small Brown Planthopper (Laodelphax striatellus); assay: Control of small brown planthopper on paddyfield rice by nursery box application, number of parasitic insects; type: in vivo; conditions: 0.5 g ai/Box, single agent
Description: (§1) Test for the Control of Small Brown Planthopper (Laodelphax striatellus) and Rice Leafroller (Cnaphalocrosis medinalis) on Paddyfield Rice Plant by Nursery Box Application
(§2) Fifty grams of a granular preparation was applied to rice plant (variety: Nihombare) cultured in a nursery box, after which the rice plant was transplanted to the main paddy field (in the middle of May). The controlling effect against small brown planthopper was evaluated by investigating the number of parasitic insects on 30 hills per each plot, 40 days and 60 days after the transplantation. The controlling effect against rice leafroller was evaluated by investigating the number of injured leaves on 100 hills per each plot, 50 days after the transplantation.

Rice Blast = conditions: in vivo
[3] = test system: Rice Water Weevil (Lissorhoptrus oryzophilus); assay: Control of rice water weevil on paddyfield rice by nursery box application, extent of injury; type: in vivo; conditions: 0.5 g ai/Box, single agent
[4] = test system: Citrus Yellow Thrips (Frankliniella occidentalis); assay: Control of citrus yellow thrips on egg plant by combined use with natural enemy pesticide, number of thrips; type: in vivo; conditions: 100 ppm, spray
Aphid = assay: Control of aphid on cabbage by soil treatment, number of parasitic insects; type: in vivo; conditions: 5 mg ai/hill, 21 days after transplanting
Description: (§3) Test for the Control of Diamondback Moth (Plutella xyloxtella) and Aphid on Cabbage by Soil Treatment
A granular preparation was mixed into bed soil, and the mixture was filled into a cell seedling box and sown with seeds of cabbage (variety: YR Seitoku). Otherwise, cell seedling planted cabbage was treated with the granular agent either by a treatment in the foliage leaf extraction period, or by a pre-transplanting treatment, or by a pricking-in hole treatment, or by a plant foot treatment after the planting. […]

[5] = test system: Smaller Tea Tortrix (Adoxophyes orana fosciota); assay: Insecticidal test on smaller tea tortrix, tea leaf dipping; type: in vivo; conditions: single agent 0.3 ppm, 4th instar larvae, 25° C.
Description: Insecticidal Test on Smaller Tea Tortrix (Adoxophyes orana fosciota)
Tea leaves were dipped in a solution of a chemical diluted to a prescribed concentration for 30 seconds. […] Four days and seven days after the treatment, the number of alive insects were counted, from which percentage of death was calculated.

[6] = test system: Brown Rice Planthopper (Nilaparvata lugens); assay: Insecticidal test on brown rice planthopper, rice seedling dipping; type: in vivo; conditions: 100 ppm, single agent; for Death rate (%) After 1 days: after 1 day
Description: Insecticidal Test on Brown Rice Planthopper (Nilaparvata lugens)
Rice seedlings (variety: Nihombare) were dipped in a solution of an agent diluted to a predetermined concentration for 30 seconds. After air-dryness, each seedling was introduced into a glass-made test tube having a diameter of 1.8 cm and a height of 20 cm, and inoculated with ten 3rd inster nimphs of brown rice planthopper. Then, the test tube was stoppered with cotton. One day after and four days after the treatment, the number of alive insects was counted, based on which the insect death rate was calculated.

[7] = test system: Resistant Strain of Two-Spotted Spider Mite; conditions: 100 ppm, single agent, 2 days after spraying
[8] = test system: Green Peach Aphid (Myzus persicae); assay: Insecticidal test on green peach aphid, spraying of Chinese cabbage, control value; type: in vivo; conditions: 100 ppm, single agent, 6 days after spraying
Cutworm = assay: Test for the effect against cutworm on beet, drench, number of injured hills per 100 hills; type: in vivo; conditions: 15 g ai/10a
Description: Test for the Effect Against Cutworm on Beet
Beet seedlings (variety: Monoace S) planted in a paper pot was treated with 3 L/m^2 of a solution of an agent diluted to a predetermined concentration, by the method of drench. Just after the drench, the plant was set. Predetermined days after the setting, the number of injured hills per 100 hills was counted.

[9] = test system: Rice Leafroller (Cnaphalocrosis medinalis); assay: Control of rice leafroller on paddyfield rice by nursery box application, number of injured leaves; type: in vivo; conditions: 0.5 g ai/Box, single agent
Description: as §1, §2

[10] = test system: Diamondback Moth (Plutella xyloxtella); assay: Control of diamondback moth on cabbage by soil treatment, number of parasitic insects; type: in vivo; conditions: 5 mg ai/hill, 21 days after transplanting
Description: as §3
A granular preparation was mixed into bed soil, and the mixture was filled into a cell seedling box and sown with seeds of cabbage (variety: YR Seitoku). Otherwise, cell seedling planted cabbage was treated with the granular agent either by a treatment in the foliage leaf extraction period, or by a pre-transplanting treatment, or by a pricking-in hole treatment, or by a plant foot treatment after the planting. Twenty one days after the transplanting (in the middle of June), the number of parasitic insects was counted on 30 hills in the case of diamondback moth and on 10 hills in the case of aphid.

[11] = true leaf extraction season treatment

Cc1cc(OC(F)(F)F)ccc1NC(=O)c1cccc(Cl)c1C(=O)NC(C)C [Compound 20]
Number of nematodes per 25 g of soil sample [1]: 28
Number of parasitic planthoppers per 30 hills After 40 days [2]: 315
Number of parasitic planthoppers per 30 hills After 60 days [2]: 354
Areal rate of disease spot (%) After 60 days (Rice Blast): 8.1%
Extent of injury After 21 days [3]: 37.4
Number of parasitic insects per 20 leaves, After 60 days [4]: 21
Number of parasitic insects per 20 leaves, After 90 days [4]: 28
Number of parasitic insects per 20 leaves, After 120 days [4]: 49
Number of parasitic insects per 30 hills, Aphid (Aphid; plant foot treatment): 501
Number of parasitic insects per 30 hills, Aphid (Aphid; pre-transplanting treatment): 478
Number of parasitic insects per 30 hills, Aphid (Aphid; pricking-in hole treatment): 499
Number of parasitic insects per 30 hills, Aphid (Aphid; soil incorporation): 512
Number of parasitic insects per 30 hills, Aphid (Aphid; [11]): 498
Death rate (%) After 4 days [5]: 0%
Death rate (%) After 7 days [5]: 25%
Death rate (%) After 1 days [6]: 0%
Death rate (%) After 5 days [6]: 0%
Death rate (%) [7]: 0%
Control degree (%) [8]: 0%
Number of injured hills per 100 hills, After 60 days (Cutworm): 0
Number of injured hills per 100 hills, After 90 days (Cutworm): 7
Number of injured hills per 100 hills, After 120 days (Cutworm): 20
Percentage of injured leaves (%) After 50 days [9]: 0.15%
Number of parasitic insects per 30 hills, Diamondback moth ([10]; plant foot treatment): 5
Number of parasitic insects per 30 hills, Diamondback moth ([10]; pre-transplanting treatment): 6
Number of parasitic insects per 30 hills, Diamondback moth ([10]; pricking-in hole treatment): 3
Number of parasitic insects per 30 hills, Diamondback moth ([10]; soil incorporation): 4
Number of parasitic insects per 30 hills, Diamondback moth [10, 11]: 2

CC(C)NC(=O)c1c(I)cccc1C(=O)Nc1ccc(C(F)(F)F)cc1Cl [Compound 39]
Number of nematodes per 25 g of soil sample [1]: 34
Number of parasitic planthoppers per 30 hills After 40 days [2]: 343
Number of parasitic planthoppers per 30 hills After 60 days [2]: 372
Areal rate of disease spot (%) After 60 days (Rice Blast): 8.2%
Extent of injury After 21 days [3]: 38.9
Number of parasitic insects per 20 leaves, After 60 days [4]: 19
Number of parasitic insects per 20 leaves, After 90 days [4]: 32
Number of parasitic insects per 20 leaves, After 120 days [4]: 58
Number of parasitic insects per 30 hills, Aphid (Aphid; plant foot treatment): 456
Number of parasitic insects per 30 hills, Aphid (Aphid; pre-transplanting treatment): 457
Number of parasitic insects per 30 hills, Aphid (Aphid; pricking-in hole treatment): 437
Number of parasitic insects per 30 hills, Aphid (Aphid; soil incorporation): 513
Number of parasitic insects per 30 hills, Aphid (Aphid; [11]): 487
Death rate (%) After 4 days [5]: 0%
Death rate (%) After 7 days [5]: 20%
Death rate (%) After 1 days [6]: 0%
Death rate (%) After 5 days [6]: 0%
Death rate (%) [7]: 0%
Control degree (%) [8]: 0%
Number of injured hills per 100 hills, After 60 days (Cutworm): 0
Number of injured hills per 100 hills, After 90 days (Cutworm): 6
Number of injured hills per 100 hills, After 120 days (Cutworm): 17
Percentage of injured leaves (%) After 50 days [9]: 0.25%
Number of parasitic insects per 30 hills, Diamondback moth ([10]; plant foot treatment): 2
Number of parasitic insects per 30 hills, Diamondback moth ([10]; pre-transplanting treatment): 4
Number of parasitic insects per 30 hills, Diamondback moth ([10]; pricking-in hole treatment): 3
Number of parasitic insects per 30 hills, Diamondback moth ([10]; soil incorporation): 3
Number of parasitic insects per 30 hills, Diamondback moth [10, 11]: 2

Cc1cc(C(F)(F)F)ccc1NC(=O)c1cccc(I)c1C(=O)NC(C)C [Compound 40]
Number of nematodes per 25 g of soil sample [1]: 33
Number of parasitic planthoppers per 30 hills After 40 days [2]: 322
Number of parasitic planthoppers per 30 hills After 60 days [2]: 358
Areal rate of disease spot (%) After 60 days (Rice Blast): 7.9%
Extent of injury After 21 days [3]: 39.0
Number of parasitic insects per 20 leaves, After 60 days [4]: 22
Number of parasitic insects per 20 leaves, After 90 days [4]: 31
Number of parasitic insects per 20 leaves, After 120 days [4]: 52
Number of parasitic insects per 30 hills, Aphid (Aphid; plant foot treatment): 478
Number of parasitic insects per 30 hills, Aphid (Aphid; pre-transplanting treatment): 477
Number of parasitic insects per 30 hills, Aphid (Aphid; pricking-in hole treatment): 486
Number of parasitic insects per 30 hills, Aphid (Aphid; soil incorporation): 472
Number of parasitic insects per 30 hills, Aphid (Aphid; [11]): 510
Death rate (%) After 4 days [5]: 0%
Death rate (%) After 7 days [5]: 25%
Death rate (%) After 1 days [6]: 0%
Death rate (%) After 5 days [6]: 0%
Death rate (%) [7]: 0%
Control degree (%) [8]: 0%
Number of injured hills per 100 hills, After 60 days (Cutworm): 0
Number of injured hills per 100 hills, After 90 days (Cutworm): 9
Number of injured hills per 100 hills, After 120 days (Cutworm): 23
Percentage of injured leaves (%) After 50 days [9]: 0.33%
Number of parasitic insects per 30 hills, Diamondback moth ([10]; plant foot treatment): 3
Number of parasitic insects per 30 hills, Diamondback moth ([10]; pre-transplanting treatment): 1
Number of parasitic insects per 30 hills, Diamondback moth ([10]; pricking-in hole treatment): 1
Number of parasitic insects per 30 hills, Diamondback moth ([10]; soil incorporation): 2
Number of parasitic insects per 30 hills, Diamondback moth [10, 11]: 1

Cc1cc(C(F)(F)C(F)(F)F)ccc1NC(=O)c1cccc(I)c1C(=O)NC(C)C [Compound 41]
Number of nematodes per 25 g of soil sample [1]: 31
Number of parasitic planthoppers per 30 hills After 40 days [2]: 333
Number of parasitic planthoppers per 30 hills After 60 days [2]: 385
Areal rate of disease spot (%) After 60 days (Rice Blast): 8.5%
Extent of injury After 21 days [3]: 43.2
Number of parasitic insects per 20 leaves, After 60 days [4]: 18
Number of parasitic insects per 20 leaves, After 90 days [4]: 29
Number of parasitic insects per 20 leaves, After 120 days [4]: 59
Number of parasitic insects per 30 hills, Aphid (Aphid; plant foot treatment): 456
Number of parasitic insects per 30 hills, Aphid (Aphid; pre-transplanting treatment): 458
Number of parasitic insects per 30 hills, Aphid (Aphid; pricking-in hole treatment): 511
Number of parasitic insects per 30 hills, Aphid (Aphid; soil incorporation): 457
Number of parasitic insects per 30 hills, Aphid (Aphid; [11]): 495
Death rate (%) After 4 days [5]: 0%
Death rate (%) After 7 days [5]: 30%
Death rate (%) After 1 days [6]: 0%
Death rate (%) After 5 days [6]: 0%
Death rate (%) [7]: 0%
Control degree (%) [8]: 0%
Number of injured hills per 100 hills, After 60 days (Cutworm): 0
Number of injured hills per 100 hills, After 90 days (Cutworm): 7
Number of injured hills per 100 hills, After 120 days (Cutworm): 21
Percentage of injured leaves (%) After 50 days [9]: 0.35%
Number of parasitic insects per 30 hills, Diamondback moth ([10]; plant foot treatment): 2
Number of parasitic insects per 30 hills, Diamondback moth ([10]; pre-transplanting treatment): 1
Number of parasitic insects per 30 hills, Diamondback moth ([10]; pricking-in hole treatment): 2
Number of parasitic insects per 30 hills, Diamondback moth ([10]; soil incorporation): 3
Number of parasitic insects per 30 hills, Diamondback moth [10, 11]: 2

Cc1cc(C(F)(F)C(F)(F)C(F)(F)F)ccc1NC(=O)c1cccc(I)c1C(=O)NC(C)C [Compound 42]
Number of nematodes per 25 g of soil sample [1]: 28
Number of parasitic planthoppers per 30 hills After 40 days [2]: 345
Number of parasitic planthoppers per 30 hills After 60 days [2]: 389
Areal rate of disease spot (%) After 60 days (Rice Blast): 8.3%
Extent of injury After 21 days [3]: 39.5
Number of parasitic insects per 20 leaves, After 60 days [4]: 19
Number of parasitic insects per 20 leaves, After 90 days [4]: 25
Number of parasitic insects per 20 leaves, After 120 days [4]: 50
Number of parasitic insects per 30 hills, Aphid (Aphid; plant foot treatment): 498
Number of parasitic insects per 30 hills, Aphid (Aphid; pre-transplanting treatment): 435
Number of parasitic insects per 30 hills, Aphid (Aphid; pricking-in hole treatment): 473
Number of parasitic insects per 30 hills, Aphid (Aphid; soil incorporation): 475
Number of parasitic insects per 30 hills, Aphid (Aphid; [11]): 485
Death rate (%) After 4 days [5]: 0%
Death rate (%) After 7 days [5]: 30%
Death rate (%) After 1 days [6]: 0%
Death rate (%) After 5 days [6]: 0%
Death rate (%) [7]: 0%
Control degree (%) [8]: 0%
Number of injured hills per 100 hills, After 60 days (Cutworm): 0
Number of injured hills per 100 hills, After 90 days (Cutworm): 8
Number of injured hills per 100 hills, After 120 days (Cutworm): 22
Percentage of injured leaves (%) After 50 days [9]: 0.22%
Number of parasitic insects per 30 hills, Diamondback moth ([10]; plant foot treatment): 3
Number of parasitic insects per 30 hills, Diamondback moth ([10]; pre-transplanting treatment): 3
Number of parasitic insects per 30 hills, Diamondback moth ([10]; pricking-in hole treatment): 1
Number of parasitic insects per 30 hills, Diamondback moth ([10]; soil incorporation): 3
Number of parasitic insects per 30 hills, Diamondback moth [10, 11]: 2
